We go through 1 molecule from patent US10512631B2, “Chalcone compounds” (Beth Israel Deaconess Medical Center, Inc., priority 2015, dated 2019).

Holding throughout (type): cell-based
In one assay the test system is A549 cells. Kind of assay: Invasion chambers (Transwell, Matrigel). The note with it: serum chemoattractants, compared to untreated cells. On the procedure:
The invasion of A549 cells was measured using Transwell chambers (Chemicon, Millipore, Calif.) according to the manufacturer's protocol. Briefly, A549 cells were treated with test compounds at 1 μM in 500 μl of DMEM medium without FBS for 24 hours. Medium in the upper chamber was serum-free while medium in the lower chamber contained 10% FBS as a source of chemoattractants. Cells that passed through the Matrigel-coated membrane were stained and photographed after 24 hours of incubation. Absorbance was measured at 562 nm by ELISA reader after dissolving of stained cells in 10% acetic acid.

For assay [1], the target named is T1, ASK1 kinase and STMN1 interaction (Homo sapiens, UniProt Q99683).
T1 construct: immunoblotting with antibody against P-ASK1 (Ser83) in A549 cells treated with 1 μM Compound 6 or DMSO; endogenous in cells; host or cells: A549 cells
T1 sequence (Q99683 1-1374): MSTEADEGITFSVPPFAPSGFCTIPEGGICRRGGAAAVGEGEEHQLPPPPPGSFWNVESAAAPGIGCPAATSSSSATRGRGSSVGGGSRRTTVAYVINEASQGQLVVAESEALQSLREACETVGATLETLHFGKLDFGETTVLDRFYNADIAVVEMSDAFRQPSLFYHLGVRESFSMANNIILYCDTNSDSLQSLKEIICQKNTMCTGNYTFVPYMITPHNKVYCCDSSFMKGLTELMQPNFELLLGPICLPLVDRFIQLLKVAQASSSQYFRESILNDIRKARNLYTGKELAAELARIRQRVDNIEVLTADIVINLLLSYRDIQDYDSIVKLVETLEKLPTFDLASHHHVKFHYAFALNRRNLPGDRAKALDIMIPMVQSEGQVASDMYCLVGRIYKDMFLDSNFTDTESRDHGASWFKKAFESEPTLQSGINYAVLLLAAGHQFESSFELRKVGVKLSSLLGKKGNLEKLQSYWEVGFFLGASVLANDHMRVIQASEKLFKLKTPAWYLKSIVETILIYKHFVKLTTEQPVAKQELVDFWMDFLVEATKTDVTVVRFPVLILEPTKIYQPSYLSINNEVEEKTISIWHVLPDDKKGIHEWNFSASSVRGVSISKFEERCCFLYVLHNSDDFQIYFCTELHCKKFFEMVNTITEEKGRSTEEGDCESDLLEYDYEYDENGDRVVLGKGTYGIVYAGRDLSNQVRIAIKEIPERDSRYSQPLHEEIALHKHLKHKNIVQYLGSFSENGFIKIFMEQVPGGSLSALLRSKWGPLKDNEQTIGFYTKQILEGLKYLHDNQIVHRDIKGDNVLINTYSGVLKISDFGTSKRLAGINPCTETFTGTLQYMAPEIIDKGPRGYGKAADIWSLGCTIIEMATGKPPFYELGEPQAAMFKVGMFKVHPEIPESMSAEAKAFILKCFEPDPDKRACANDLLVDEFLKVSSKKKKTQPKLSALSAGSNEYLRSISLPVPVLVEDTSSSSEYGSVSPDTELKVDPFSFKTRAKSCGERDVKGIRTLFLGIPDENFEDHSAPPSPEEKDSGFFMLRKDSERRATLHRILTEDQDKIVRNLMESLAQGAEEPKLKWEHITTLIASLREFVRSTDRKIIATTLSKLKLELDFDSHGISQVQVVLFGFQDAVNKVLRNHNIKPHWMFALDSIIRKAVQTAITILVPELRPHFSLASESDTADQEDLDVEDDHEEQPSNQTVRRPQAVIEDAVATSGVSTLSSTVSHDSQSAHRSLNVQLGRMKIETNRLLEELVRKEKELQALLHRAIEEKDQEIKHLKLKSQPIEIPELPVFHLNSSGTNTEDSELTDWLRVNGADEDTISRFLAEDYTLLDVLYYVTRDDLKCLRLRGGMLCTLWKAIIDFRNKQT
Kind of assay: Immunoprecipitation of STMN1 / immunoblotting of P-ASK1. The note with it: A549 cells, 1 μM, 30 minutes. On the procedure: Snap-frozen tissue samples were homogenized in ice-cold tissue lysis buffer (250 mM NaCl, 5 mM EDTA, 1% Triton X-100, 10 mM Tris-HCl; pH 7.5) containing the protease inhibitor cocktail Complete Mini (Roche). For co-immunoprecipitation, 200 μg protein lysates in RIPA buffer and the protease inhibitor cocktail were mixed with appropriate antibodies and 30 μl Protein A/G Plus-agarose beads (Santa Cruz Biotechnology) and then rotated for 1 hour at room temperature. The proteins were washed with RIPA buffer and eluted (95° C., 5 min in SDS loading buffer). Immunoblotting was performed as previously described in Chin et al., Proc. Natl. Acad. Sci. USA 2007, 104(12), 5109-14. Antibodies: P (Ser967)-ASK1 (Cell Signaling), Ask1 (Cell Signaling), P-STMN1 (Ser16) (Cell Signaling), STMN1 (Cell Signaling), 13-Actin (Sigma) were used at 1:1000 dilution.

In assay [2] the test system is PC3 (prostate cancer), A549 (lung cancer), CLR2119 and PAN02 (pancreatic cancer). Kind of assay: Crystal violet staining, four cancer cell lines. Conditions: range over four cell lines, 72 hours, 0.01-10 μM; highest efficiency in PC3; read-out: IC50, survival of cancer cells. Here is the method: PC3 (provided by Dr. Steven Balk's laboratory in Department of Medicine at Beth Israel Deaconess Medical Center), PANC02 and CRL2119 (provided by Dr. Pankaja Seth's laboratory in Department of Medicine at Beth Israel Deaconess Medical Center), A549 (ATCC) cell lines were cultured according to manufacturer's protocols. Briefly, PC3 were cultured in RPMI medium supplemented with 10% FBS (Atlanta). PANC-2, A549 and CRL2119 were cultured in DMEM High medium supplemented with 10% FBS (Atlanta). Human bronchial epithelial cells (BEC) were cultured in Airway Epithelial Cell Basal Medium with the Bronchial Epithelial cell growth kit (ATCC) according to manufacturer's protocol and used at passages 3-5.
(§1) Cells were seeded at 5×10^3 concentration in 96 well plates and treated with test compounds or DMSO (0.001-10 μM) for 72 hours. Culture medium was removed and cells were stained with crystal violet solution (Sigma-Aldrich) for 15 minutes while shaking at room temperature. Crystal violet was then removed and cells were repeatedly washed in water. Attached cells stained with crystal violet were dried and then resuspended in 10% acetic acid. Absorbance was measured at 562 nm. The intensity of staining corresponded directly to the number of live cells.

In assay [3] the test system is PC3 cells transfected with siRNA against STMN1. Kind of assay: Crystal violet staining of PC3 cells transfected with siRNA against STMN1. Conditions: siRNA STMN1 vs control siRNA; 1 μM Compound 6, 1 μM Compound 7, 0.1 μM Compound 8, 72 hours. On the procedure:
as §1
siRNA against STMN1 and scramble siRNA were obtained from Darmacon (ONTARGET plus siRNA). PC3 cells were transiently transfected with siRNA against STMN1 or scramble siRNA using Lipofectamine 2000 (Invitrogen) as previously described in Wegiel et al., J. Biol. Chem. 2009, 7; 284(32):21369-78. Twenty four hours post-transfection, cells were split to 96 well plates and treated with test compounds for 72 hours. STMN1 levels were measured by immunoblotting to confirm successful knockdown.

SMILES strings stand for the structures.

For the molecule `Cn1ccc2cc(/C=C3\CCc4ccc(F)cc4C3=O)ccc21` [Compound 6, (2E)-7-fluoro-2-[(1-methyl-1H-indol-5-yl)methylidene]-1,2,3,4-tetrahydronaphthalen-1-one], the “invasion / migration through matrigel coated chambers” value in the assay on A549 cells is reported as “strongly inhibited invasion”. For the same molecule, the “ASK1 kinase and STMN1 interaction” value in assay [1] was “significantly blocked”. Further, the half-inhibitory concentration (IC50) in assay [2] was 140 to 300 nM. Further, the “cell death in response to compound in the absence of STMN1” value in assay [3] is “attenuated in the absence of STMN1”.
